These results are taken from patent US6943179B2, “Biurethane derivatives” (Merck Patent GmbH, priority 2001, dated 2005).

For one data set, the target named is FXa (Homo sapiens, UniProt P00742). In words: Factor Xa inhibition (FXa-IC50). It is filed as biochemical. An excerpt:
The inhibition of factor Xa by the compounds according to the invention and the measurement of the anticoagulant and antithrombotic activity can be determined by conventional in-vitro or in-vivo methods. A suitable method is described, for example, by J. Hauptmann et al. in Thrombosis and Haemostasis 1990, 63, 220-223.
The inhibition of factor Xa can be measured, for example, by the method of T. Hara et al. in Thromb. Haemostas. 1994, 71, 314-319.

The next data set deals with T1, TF/FVIIa (Homo sapiens, UniProt P08709).
T1 construct: Coagulation factor VIIa initiates the extrinsic part of the coagulation cascade
T1 sequence (P08709 213-466 limits assumed): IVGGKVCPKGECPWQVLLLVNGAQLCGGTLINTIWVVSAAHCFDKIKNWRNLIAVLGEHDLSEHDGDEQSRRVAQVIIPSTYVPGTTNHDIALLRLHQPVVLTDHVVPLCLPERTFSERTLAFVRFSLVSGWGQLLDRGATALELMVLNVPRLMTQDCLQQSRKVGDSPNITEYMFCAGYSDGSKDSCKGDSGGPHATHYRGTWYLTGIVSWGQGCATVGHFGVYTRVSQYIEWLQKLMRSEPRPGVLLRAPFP
T1 sequence (P08709 61-212 limits assumed): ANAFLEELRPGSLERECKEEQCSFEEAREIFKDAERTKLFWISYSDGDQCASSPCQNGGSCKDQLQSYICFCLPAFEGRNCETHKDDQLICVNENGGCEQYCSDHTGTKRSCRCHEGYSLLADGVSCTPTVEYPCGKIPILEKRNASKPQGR
T1 sequence (P13726 33-295 partner): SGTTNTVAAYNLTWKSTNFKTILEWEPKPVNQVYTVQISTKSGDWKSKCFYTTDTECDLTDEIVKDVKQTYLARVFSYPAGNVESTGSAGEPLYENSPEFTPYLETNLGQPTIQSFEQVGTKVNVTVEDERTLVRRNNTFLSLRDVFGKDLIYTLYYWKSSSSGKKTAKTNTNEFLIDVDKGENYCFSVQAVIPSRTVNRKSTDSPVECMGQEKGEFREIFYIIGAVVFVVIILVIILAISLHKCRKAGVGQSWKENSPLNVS
In words: TF/FVIIa inhibition (TF/FVIIa-IC50). The format is biochemical. The text has this: The inhibition of factor VIIa by the compounds according to the invention and the measurement of the anticoagulant and antithrombotic activity can be determined by conventional in-vitro or in-vivo methods. A conventional method for the measurement of the inhibition of factor VIIa is described, for example, by H. F. Ronning et al. in Thrombosis Research 1996, 84, 73-81.

Sequence of FXa (P00742 235-488 limits assumed): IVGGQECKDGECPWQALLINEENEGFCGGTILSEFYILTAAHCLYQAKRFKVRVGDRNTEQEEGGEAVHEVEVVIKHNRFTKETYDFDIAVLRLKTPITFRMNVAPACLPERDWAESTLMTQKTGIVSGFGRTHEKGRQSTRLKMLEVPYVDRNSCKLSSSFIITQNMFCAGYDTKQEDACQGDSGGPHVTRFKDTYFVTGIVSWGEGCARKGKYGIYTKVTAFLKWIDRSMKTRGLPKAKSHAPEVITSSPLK
Sequence of FXa (P00742 41-179 limits assumed): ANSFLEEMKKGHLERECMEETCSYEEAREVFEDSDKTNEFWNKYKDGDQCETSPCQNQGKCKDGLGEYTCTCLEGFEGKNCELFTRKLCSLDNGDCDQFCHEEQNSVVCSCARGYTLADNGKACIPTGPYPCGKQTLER

The term IC50 denotes the concentration at which inhibition is half-maximal. A high value points to lower potency. For orientation: melting point means the temperature of the solid-liquid transition. Take `CS(=O)(=O)c1ccccc1-c1ccc(NC(=O)N(NC(=O)Nc2ccc(Cl)cc2)c2ccccc2)cc1` [compound 3]: the melting point is over 250 °C. On FXa, this compound came in with an IC50 of 390 nM. This compound returned an IC50 against TF/FVIIa of 190 nM.
In the same order, the values of `O=C(Nc1ccc(Cl)cc1)NN(C(=O)Nc1ccc(N2CCCCC2=O)cc1)c1ccc(Cl)cc1` [compound 2] are 170 to 175 °C, 670 nM and 340 nM.
The like results for `O=C(Nc1ccc(Cl)cc1)NN(C(=O)Nc1ccc(N2CCCCC2=O)cc1)c1ccccc1` [No. 1, N-(4-Chlorophenylaminocarbonyl)-N′-[4-(2-oxo-1-piperidyl)phenylaminocarbonyl]-N′-phenylhydrazine] were, in that order, 165 to 170 °C (dec.), 180 nM and 91 nM.
